# From patent US20240423980A1, “METHODS OF PREVENTING A VENOUS THROMBOEMBOLIC EVENT” (Board of Supervisors of Louisiana State University and …, priority 2023, published 2024)
# How the values were obtained:
# ITGA9-VCAM1 binding = target: T1, ITGA9-VCAM1 binding (Homo sapiens, UniProt Q13797); assay: ITGA9 binding assay (ITGA9-VCAM1 binding, cell-free)
# T1 construct: purchased R&D Systems
# Experimental: Turning next to FIG. 2, another aspect of the invention is shown as a ITGA9 binding assay. Briefly, purified human VCAM1 (R&D Systems) diluted to 5 μg/ml in TBS+ buffer (25 mM Tris pH 7.4, 137 mM NaCl, 2.7 mM KCl, 1 mM CaCl2, 1 Mm MgCl2, 1 mM MnC12) was added to wells of a 96-well transparent microtiter plate and incubated overnight at 4° C. Wells were washed 3 times with buffer and blocking buffer (TBS+ with 1% bovine serum albumin) was added followed by incubation for 1 hour at 37° C., and then washing. Recombinant human integrin ITGA9 (R&D Systems) was diluted to 1 μg/ml in TBS+/0.1% bovine serum albumin. Macitentan was diluted into the integrin solution and added to the washed ligand-coated plate according to a standard template with each sample repeated in triplicate. After incubation for 2 hours at room temperature, the plate was washed 3 times with 150 μl TBS+ buffer. To each well, biotinylated anti-β1 (catalog BAF1778, R&D Systems) at 1 μg/ml in TBS+/0.1% BSA was added, and the plate covered and incubated for 1 hour at RT. After washing the plate 3 times with TBS+ buffer, streptavidin conjugated horseradish peroxidase (R&D Systems) diluted in TBS+ blocking buffer was added to the wells and the plate incubated for 20 minutes at room temperature. […] After incubation for 20 minutes at RT, plates were read by colorimetric detection at 450 nm wavelength. […]
# wild-type mice = assay: In vivo venous thrombosis using IVC stenosis (DVT surgery); design: species or system mouse; settings: 10 mg/kg; measured at 24-hr; vs vehicle; FIG. 3
# Experimental: Next, we performed in vivo venous thrombosis using IVC stenosis (DVT surgery) in 30 wild-type mice and randomized them into control (vehicle, n=15) and treatment (Macitentan, 10 mg/kg, n=15) groups. The thrombus weight and incidence were measured at 24-hr.
# mice with lung cancer = assay: IVC stenosis DVT in mice with lung cancer (LLC1 cells); format: in vivo, mouse; settings: thrombus harvested 48-hour post-stenosis, FIG. 23
# Experimental: Lewis lung carcinoma (LLC1) cell line will be obtained from American Type Culture Collection (ATCC). The cell line was originally derived from a Lewis lung carcinoma of a C57BL mouse strain. The cells will be grown in Dulbecco's Modified Eagle Medium (DMEM) supplemented with 10% FCS, 2 mM L-glutamine, 100 U/ml penicillin, 100 μg/ml streptomycin, and 0.1% fungizone. The cells will be maintained at 37° C. in a humidified atmosphere with 5% CO2. The LLC1 cells (100 μL) will be injected once intravenously.
# Macitentan at the dose of 2, 5 and 10 mg/kg will be administered orally once a day from the day of cancer induction until the end of the study.
# Deep vein thrombosis (DVT) will be induced in mice after 14 days of tumor induction. Briefly, anesthetized mice will undergo laparotomy, the intestine will be exteriorized, and the intra renal IVC will be exposed. The IVC will then be dissected away from the aorta. For stenosis, IVC will be exposed, a space holder (30-gauge, 3-mm long needle) will be positioned on the outside of the vessel, and a permanent narrowing ligature will be placed exactly below the left renal vein. Subsequently, the needle will be removed to restrict blood flow to 80-90%. […]
# Thrombus size and thrombosis incidence on day 1 and day 2 following DVT surgery will be evaluated by ultrasonography. […]
# [1] = test system: patients with mild-to-moderate COPD; settings: cited from earlier work
# Src = Src (Mus musculus, UniProt P05480); settings: in vivo dose of 1.5 mg/kg; cited from earlier work
# [2] = test system: Src family of protein tyrosine kinases; settings: cited from earlier work
# T1 sequence (Q13797 30-981 limits assumed): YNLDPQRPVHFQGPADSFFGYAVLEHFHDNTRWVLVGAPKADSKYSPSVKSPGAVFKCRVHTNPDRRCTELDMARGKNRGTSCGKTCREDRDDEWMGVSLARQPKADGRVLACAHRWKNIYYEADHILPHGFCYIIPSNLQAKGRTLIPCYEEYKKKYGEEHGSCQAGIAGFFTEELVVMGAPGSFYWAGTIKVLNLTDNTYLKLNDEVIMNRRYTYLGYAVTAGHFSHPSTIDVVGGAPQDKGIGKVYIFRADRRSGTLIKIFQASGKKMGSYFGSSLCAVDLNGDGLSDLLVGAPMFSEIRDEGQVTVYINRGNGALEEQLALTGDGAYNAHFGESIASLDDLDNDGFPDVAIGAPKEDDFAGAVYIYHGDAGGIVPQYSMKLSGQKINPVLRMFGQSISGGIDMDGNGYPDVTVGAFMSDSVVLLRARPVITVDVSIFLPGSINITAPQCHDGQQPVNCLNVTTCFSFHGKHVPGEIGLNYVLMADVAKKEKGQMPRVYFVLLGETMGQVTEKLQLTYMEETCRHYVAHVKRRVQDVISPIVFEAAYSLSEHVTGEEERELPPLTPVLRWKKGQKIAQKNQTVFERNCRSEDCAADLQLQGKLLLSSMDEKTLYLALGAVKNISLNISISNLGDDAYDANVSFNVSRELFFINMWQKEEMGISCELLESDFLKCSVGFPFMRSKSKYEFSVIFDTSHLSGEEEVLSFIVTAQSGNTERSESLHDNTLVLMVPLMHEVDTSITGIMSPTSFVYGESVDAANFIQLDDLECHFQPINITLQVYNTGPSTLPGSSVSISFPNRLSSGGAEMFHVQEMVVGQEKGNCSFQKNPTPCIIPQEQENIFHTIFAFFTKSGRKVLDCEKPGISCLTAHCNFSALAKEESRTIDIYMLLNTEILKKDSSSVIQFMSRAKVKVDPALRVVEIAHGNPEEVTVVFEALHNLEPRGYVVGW
# T1 sequence (P05556 21-728 partner limits assumed): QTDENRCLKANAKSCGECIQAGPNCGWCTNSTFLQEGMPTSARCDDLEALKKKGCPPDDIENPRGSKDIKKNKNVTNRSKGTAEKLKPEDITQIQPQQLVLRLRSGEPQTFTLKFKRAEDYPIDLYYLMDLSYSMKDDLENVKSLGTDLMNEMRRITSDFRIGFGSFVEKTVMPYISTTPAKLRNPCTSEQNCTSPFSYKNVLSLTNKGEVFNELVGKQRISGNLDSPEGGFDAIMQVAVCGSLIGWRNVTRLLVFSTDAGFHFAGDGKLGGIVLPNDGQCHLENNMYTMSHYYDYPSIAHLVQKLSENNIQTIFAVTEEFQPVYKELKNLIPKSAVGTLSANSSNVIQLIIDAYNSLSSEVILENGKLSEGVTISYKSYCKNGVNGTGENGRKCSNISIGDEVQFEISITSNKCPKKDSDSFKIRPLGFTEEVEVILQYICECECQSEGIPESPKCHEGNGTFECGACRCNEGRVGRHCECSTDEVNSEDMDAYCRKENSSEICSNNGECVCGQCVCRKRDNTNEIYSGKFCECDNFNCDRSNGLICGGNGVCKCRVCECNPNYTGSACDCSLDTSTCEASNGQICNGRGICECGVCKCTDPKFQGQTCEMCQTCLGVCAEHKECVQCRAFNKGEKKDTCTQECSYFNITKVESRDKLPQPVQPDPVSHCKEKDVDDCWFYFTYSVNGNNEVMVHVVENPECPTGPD
# Src, sequence (P05480 whole entry): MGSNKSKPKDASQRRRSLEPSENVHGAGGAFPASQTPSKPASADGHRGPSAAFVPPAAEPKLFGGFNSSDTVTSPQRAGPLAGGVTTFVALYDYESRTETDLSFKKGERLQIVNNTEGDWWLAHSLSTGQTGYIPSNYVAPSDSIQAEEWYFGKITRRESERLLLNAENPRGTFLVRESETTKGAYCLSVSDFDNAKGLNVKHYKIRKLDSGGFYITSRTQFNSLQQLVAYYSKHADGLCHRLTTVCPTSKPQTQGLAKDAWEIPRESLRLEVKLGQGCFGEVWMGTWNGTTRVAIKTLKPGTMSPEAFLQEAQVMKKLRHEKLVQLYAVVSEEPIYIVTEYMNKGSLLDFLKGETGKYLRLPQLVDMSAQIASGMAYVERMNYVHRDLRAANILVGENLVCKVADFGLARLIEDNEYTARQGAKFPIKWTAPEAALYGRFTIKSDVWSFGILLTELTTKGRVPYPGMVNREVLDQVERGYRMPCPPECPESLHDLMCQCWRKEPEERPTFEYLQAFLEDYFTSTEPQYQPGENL
smiles,measurement,setting,value
CCCNS(=O)(=O)Nc1ncnc(OCCOc2ncc(Br)cn2)c1-c1ccc(Br)cc1 [Macitentan],binds to integrin α9 and inhibits its interactions with VCAM-1,ITGA9-VCAM1 binding,inhibits its interactions with VCAM-1
same,inhibition of ITGA9-VCAM1 binding,"ITGA9-VCAM1 binding; Macitentan at 1 μM, FIG. 2",significantly inhibited
same,thrombosis incidence,wild-type mice,significantly reduced
same,thrombus weight,wild-type mice,significantly reduced
same,DVT severity (IVC thrombus weight),mice with lung cancer,significantly reduced
Cc1c(F)cccc1NC(=O)Nc1ccc(Cl)c(S(=O)(=O)[C@H]2CCCNC2)c1O [Danirixin],number of pneumonias,[1]; danirixin 50 mg,increased number of pneumonias
same,incidence of exacerbation,"[1]; danirixin-treated groups, COPD patients",increased incidence of exacerbation
Cc1ccc(-c2nn(C(C)(C)C)c3ncnc(N)c23)cc1 [PP1],inhibition of Src in vivo,Src,significant inhibition
same,IC50,[2],170 nM
